Laboratory results taken from ChEMBL document CHEMBL1141745, “New Sesquiterpene Lactones from Illicium floridanum” (J Nat Prod, 1998).

Experiment: Neurotoxicity against ip dosed mouse
Assay type: toxicity, organism-based
Details: in vivo

Compound: C[C@@H]1C[C@@H](O)[C@@]2(O)[C@@]13C[C@@H](OC(=O)[C@H]3O)[C@](C)(O)[C@@]21COC1=O [ANISATIN]
- LD50: 1 mg/kg
